For one assay, the target named is T1, human SGLT2 (Homo sapiens, UniProt P31639).
T1 construct: expressed in transfected cells; host or cells: CHO-K1
T1 sequence (P31639 1-672): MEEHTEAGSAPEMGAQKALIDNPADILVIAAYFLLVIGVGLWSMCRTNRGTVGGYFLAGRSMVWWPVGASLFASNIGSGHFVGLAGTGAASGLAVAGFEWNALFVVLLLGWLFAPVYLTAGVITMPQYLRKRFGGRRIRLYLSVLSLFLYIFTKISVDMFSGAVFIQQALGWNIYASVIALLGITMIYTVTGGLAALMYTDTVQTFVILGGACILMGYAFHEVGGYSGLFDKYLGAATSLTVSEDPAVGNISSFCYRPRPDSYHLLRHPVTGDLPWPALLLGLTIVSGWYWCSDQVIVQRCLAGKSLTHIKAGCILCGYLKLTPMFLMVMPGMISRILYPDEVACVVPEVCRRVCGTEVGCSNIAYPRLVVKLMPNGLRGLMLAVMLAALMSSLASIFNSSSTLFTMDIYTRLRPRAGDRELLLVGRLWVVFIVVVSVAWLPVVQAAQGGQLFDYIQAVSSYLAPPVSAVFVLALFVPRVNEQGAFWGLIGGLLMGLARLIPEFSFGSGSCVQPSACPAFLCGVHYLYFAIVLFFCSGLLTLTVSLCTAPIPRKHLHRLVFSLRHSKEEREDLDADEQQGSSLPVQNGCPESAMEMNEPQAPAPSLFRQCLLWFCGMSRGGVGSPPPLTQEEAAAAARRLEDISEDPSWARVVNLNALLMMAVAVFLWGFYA
The assay is described as follows: SGLT2 assay: Na-dependent 14C-AMG uptake in CHO-K1 cells stably expressing human SGLT2. It is filed as cell-based. The following applies: for IC50: 500 μM AMG, 2 hours at 37° C. The method, then:
(§1) SGLT1 and SGLT2 were cloned in form of cDNA from human small intestine (Genbank M24847), and from human kidney (Genbank M95549), respectively. Subsequently, each full cDNA was subcloned into pcDNA with each construct's integrity verified through follow-on sequencing. To generate CHO-K1 cells that stably express human SGLT1 or human SGLT2, CHO-K1 cells were transfected using DMRIE-C reagent (Life Technologies, Gaithersburg, Md.). Transfected cells were then selected in the presence of 500 μg/ml of the Geneticin (G418 Cellgro Catalog No. 30234-CI)
(§2) Individual clones were then characterized using the following cell-based assay for sodium-dependent glucose transport:
(§3) Inhibition of SGLT1 and SGLT2 activity was assessed in CHO K1 cells stably expressing either human SGLT1 or SGLT2, using the SGLT specific glucose analog methyl-glucopyranoside (Sigma Catalog No. M-9376). Cells were plated (45,000 cells/well) in white wall 96-well plates (COSTAR, Cat#3903) for 24 hours in growth medium, then a final concentration of 10 mM Na-Butyrate (ALDRICH Cat#30341-0) was added. The cells were incubated for 24 hours. On the day of the assay, cells were rinsed and treated with test compounds (at concentrations of 0.001 μM to 10 μM) in assay buffer (50 mM HEPES, 20 mM Tris base, 5 mM KCl, 1 mM MgCl2, 1 mM CaCl2 and 137 mM NaCl, pH 7.4) for 10 minutes. Cells were then incubated with ^14C-a-methyl-d-glucopyranoside (AMG, Amersham Catalog No. CFB 76), using 0.07 μCi per well in 500 μM AMG final concentration. The cells were incubated for 2 hours at 37° C. with 5% CO2 and washed two times with ice-cold Phosphate Buffer Solution (Cellgro Catalog No. 21030-CV). The cells were then solubilized by adding 60 μl of MICROSCINT™20 and the Na-dependent ^14C-AMG uptake was quantified by measuring radioactivity. Plates were counted in a TopCount (Packard, Meriden, Conn.)

The target of the next assay is T2, human SGLT1 (Homo sapiens, UniProt P13866).
T2 construct: expressed in transfected cells; host or cells: CHO-K1
T2 sequence (P13866 1-664): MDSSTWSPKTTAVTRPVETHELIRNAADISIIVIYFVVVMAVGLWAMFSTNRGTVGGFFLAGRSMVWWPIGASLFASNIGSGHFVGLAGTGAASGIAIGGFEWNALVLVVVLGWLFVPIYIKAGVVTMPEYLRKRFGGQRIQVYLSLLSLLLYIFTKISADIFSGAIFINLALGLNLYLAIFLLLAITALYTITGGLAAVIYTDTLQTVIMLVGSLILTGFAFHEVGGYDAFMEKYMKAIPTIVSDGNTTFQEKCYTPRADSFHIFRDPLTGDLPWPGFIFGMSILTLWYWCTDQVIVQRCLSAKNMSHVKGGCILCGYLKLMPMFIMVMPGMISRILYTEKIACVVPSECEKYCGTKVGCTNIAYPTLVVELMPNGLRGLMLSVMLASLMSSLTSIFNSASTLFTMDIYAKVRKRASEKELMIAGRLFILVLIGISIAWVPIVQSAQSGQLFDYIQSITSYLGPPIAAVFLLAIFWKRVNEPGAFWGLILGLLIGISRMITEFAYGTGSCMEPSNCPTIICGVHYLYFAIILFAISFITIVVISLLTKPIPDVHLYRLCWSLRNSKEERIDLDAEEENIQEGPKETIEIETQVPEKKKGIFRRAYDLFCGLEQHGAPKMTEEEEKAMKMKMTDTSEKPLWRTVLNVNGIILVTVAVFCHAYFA
The assay is described as follows: SGLT1 assay: Na-dependent 14C-AMG uptake in CHO-K1 cells stably expressing human SGLT1. The class given is cell-based. The following applies: for IC50: 500 μM AMG, 2 hours at 37° C. As to the method: as §1, §2, §3

As to `OC[C@H]1O[C@@H](c2cc(Cc3ccc4c(c3)CC4)c(Cl)cc2F)[C@H](O)[C@@H](O)[C@@H]1O` [Compound 30, (2S,3R,4R,5S,6R)-2-(4-chloro-5-((1,2-dihydrocyclobutabenzen-4-yl)methyl)-2-fluorophenyl)-6-(hydroxymethyl)-tetrahydro-2H-pyran-3,4,5-triol], the IC50 (in general, the midpoint of a concentration-inhibition curve) against human SGLT2 was 3 nM; at human SGLT1 it was 206 nM.

On to `CN(C)c1cc(O)c([C@@H]2O[C@H](CO)[C@@H](O)[C@H](O)[C@H]2O)cc1Cc1ccc2c(c1)CC2` [Compound 22, (2S,3R,4R,5S,6R)-2-(5-((1,2-dihydrocyclobutabenzen-4-yl)methyl)-4-(dimethylamino)-2-hydroxyphenyl)-6-(hydroxymethyl)-tetrahydro-2H-pyran-3,4,5-triol], for which the results for the IC50 against human SGLT2 and against human SGLT1 were 3 nM and 12 nM, respectively.

`[2H]C([2H])(c1ccc2c(c1)CC2)c1cc([C@@H]2O[C@H](CO)[C@@H](O)[C@H](O)[C@H]2O)ccc1Cl` (single isomer, unassigned) [Compound 54]: the IC50 amounted to 1 nM against human SGLT2 and 63 nM against human SGLT1.

As for `N#Cc1cc(O)c([C@@H]2O[C@H](CO)[C@@H](O)[C@H](O)[C@H]2O)cc1Cc1ccc2c(c1)CC2` [Compound 17, 2-((1,2-dihydrocyclobutabenzen-4-yl)methyl)-5-hydroxy-4-((2S,3R,4R,5S,6R)-3,4,5-trihydroxy-6-(hydroxymethyl)-tetrahydro-2H-pyran-2-yl)benzonitrile], the results for the 50% inhibitory concentration (IC50) at human SGLT2 and against human SGLT1 were 1 nM and 192 nM, respectively.

As to `[2H]C1([2H])Cc2cc(Cc3cc([C@@H]4O[C@H](CO)[C@@H](O)[C@H](O)[C@H]4O)c(OC)cc3OC)ccc21` (single isomer, unassigned) [Compound 84], the IC50 stood at 2 nM on human SGLT2 and 63 nM against human SGLT1.

As to `OC[C@H]1O[C@@H](c2cc(Cc3ccc4c(c3)CC4)c(Cl)cc2O)[C@H](O)[C@@H](O)[C@@H]1F` [Compound 129], the IC50 against human SGLT2 stood at 1 nM; at human SGLT1, 4 nM.

With `OC[C@H]1O[C@@H](c2ccc(Cl)c(C(F)(F)c3ccc4c(c3)CC4)c2)[C@H](O)[C@@H](O)[C@@H]1O` [Compound 140], the results for the IC50 against human SGLT2 and at human SGLT1 were 2 nM and 50 nM, respectively.

With `[2H]C1([2H])Cc2ccc(Cc3cc([C@@H]4O[C@H](CO)[C@@H](O)[C@H](O)[C@H]4O)c(F)cc3C)cc21` [Compound 70, (2S,3R,4R,5S,6R)-2-(5-{[(8,8-dideuterium)bicyclo[4.2.0]octa-1(6),2,4-trien-3-yl]methyl}-2-fluoro-4-methylphenyl)-6-(hydroxymethyl)oxane-3,4,5-triol], the inhibition (as a rule, the drop in the measured response relative to a control, in per cent) at 0.03 µM against human SGLT2 came out at 35%. Moreover, at human SGLT1, the inhibition at 0.3 µM stood at 85%.

For `OC[C@H]1O[C@@H](c2cc(Cc3ccc4c(c3)CC4)ccc2O)[C@H](O)[C@@H](O)[C@@H]1O` [Compound 25, (2S,3R,4R,5S,6R)-2-(5-{bicyclo[4.2.0]octa-1(6),2,4-trien-3-ylmethyl}-2-hydroxyphenyl)-6-(hydroxymethyl)oxane-3,4,5-triol], testing at 0.03 µM against human SGLT2 gave an inhibition of 71%. At human SGLT1, this molecule showed an inhibition at 0.3 µM of 36%.

For `CCc1ccc([C@@H]2O[C@H](CO)[C@@H](F)[C@H](O)[C@H]2O)cc1Cc1ccc2c(c1)CC2` [Compound 128], the IC50 against human SGLT2 came out at 8 nM; on human SGLT1 it was 47 nM.

Consider `CCOc1cc(Cl)c(Cc2ccc3c(c2)CC3)cc1[C@@H]1O[C@H](CO)C(F)(F)[C@H](O)[C@H]1O` [Compound 104], for which the IC50 against human SGLT2 was 1 nM; against human SGLT1, 14 nM.

On to `[2H]C1([2H])Cc2ccc(Cc3cc([C@@H]4O[C@H](CO)[C@@H](O)[C@H](O)[C@H]4O)c(OC)cc3C)cc21` [Compound 63, (2S,3R,4R,5S,6R)-2-(5-((2,2-dideuterium-1,2-dihydrocyclobutabenzen-4-yl)methyl)-2-methoxy-4-methylphenyl)-6-(hydroxymethyl)-tetrahydro-2H-pyran-3,4,5-triol], for which the IC50 against human SGLT2 was 1 nM; at human SGLT1, 84 nM.

For `CCOc1cc(Cl)c(Cc2ccc3c(c2)CC3)cc1[C@@H]1O[C@H](CO)[C@@H](O)[C@H](O)[C@H]1O` [Compound 115], the figures for the IC50 against human SGLT2 and at human SGLT1 were 1 nM and 22 nM, respectively.

Turning to `[2H]C([2H])(c1ccc2c(c1)CC2)c1cc([C@@H]2O[C@H](CO)[C@@H](O)[C@H](O)[C@H]2O)ccc1CC` [Compound 58, (2S,3R,4R,5S,6R)-2-(3-[bicyclo[4.2.0]octa-(6),2,4-trien-3-yl(dideuterium)methyl]-4-ethylphenyl)-6-(hydroxymethyl)oxane-3,4,5-triol], the IC50 against human SGLT2 amounted to 2 nM; at human SGLT1, 25 nM.

`COc1ccc(Cc2ccc3c(c2)CC3)cc1[C@@H]1O[C@H](CO)[C@@H](O)[C@H](O)[C@H]1O` [Compound 26, (2S,3R,4R,5S,6R)-2-(5-(bicyclo[4.2.0]octa-1(6),2,4-trien-3-ylmethyl)-2-methoxyphenyl)-6-(hydroxymethyl)oxane-3,4,5-triol] came in with an inhibition at 0.03 µM at human SGLT2 of 58%. On human SGLT1, this molecule gave an inhibition at 0.3 µM of 5%.

Regarding `COc1cc(N(C)C)c(Cc2ccc3c(c2)CC3)cc1[C@@H]1O[C@H](CO)[C@@H](O)[C@H](O)[C@H]1O` [Compound 23, (2S,3R,4R,5S,6R)-2-(5-((1,2-dihydrocyclobutabenzen-4-yl)methyl)-4-(dimethylamino)-2-methoxyphenyl)-6-(hydroxymethyl)-tetrahydro-2H-pyran-3,4,5-triol], on human SGLT2, the inhibition at 0.03 µM turned out to be 39%. Besides, the inhibition at 0.3 µM on human SGLT1 turned out to be 24%.

Turning to `[2H]C1([2H])Cc2cc(Cc3cc([C@@H]4O[C@H](CO)[C@@H](O)[C@H](O)[C@H]4O)ccc3C)ccc21` [Compound 85, (2S,3R,4R,5S,6R)-(3-((1,1-dideuterium-1,2-dihydrocyclobutabenzen-4-yl)methyl)-4-methylphenyl)-6-(hydroxymethyl)-tetrahydro-2H-pyran-3,4,5-triol], the IC50 on human SGLT2 worked out at 2 nM; on human SGLT1 it was 46 nM.

In the case of `[2H]C1([2H])Cc2cc(Cc3cc([C@@H]4O[C@H](CO)[C@@H](O)[C@H](O)[C@H]4O)ccc3Cl)ccc21` (single isomer, unassigned) [Compound 81], the concentration for half-maximal inhibition (IC50) against human SGLT2 is 1 nM; against human SGLT1, 62 nM.

On to `OC[C@H]1O[C@@H](c2ccc(Cl)c(Cc3ccc4c(c3)CC4)c2)[C@H](O)[C@@H](O)[C@@H]1O` [Compound 2, (2S,3R,4R,5S,6R)-2-(4-chloro-3-((1,2-dihydrocyclobutabenzen-4-yl)methyl)phenyl)-6-(hydroxymethyl)-tetrahydro-2H-pyran-3,4,5-triol], for which the figures for the IC50 against human SGLT2 and at human SGLT1 were 1 nM and 45 nM, respectively.
